Laboratory results: ChEMBL document CHEMBL5329202, “New aryl-/heteroarylpiperazine derivatives of 1,7-dimethyl-8,9-diphenyl-4-azatricyclo[5.2.1.02,6]dec-8-ene-3,5,10-trione: Synthesis and preliminary studies of biological activities” (Bioorg Med Chem, 2023)
The source made the active and inactive calls. The calls are words filed in the database; no cut-off is given here.

Key:
[1] = test system: SW-620; experiment: Cytotoxicity against human SW620 cells assessed as cell growth inhibition measured after 72 hrs by MTT assay; assay type: functional, cell-based; settings: SW-620, 72 h
[2] = Selectivity index, ratio of IC50 for cytotoxicity against human HMEC-1 cells to IC50 for cytotoxicity against human MDA-MB-231 cells; assay type: toxicity, cell-based; settings: HMEC-1 cells and MDA-MB-231 cells, read-out: Ratio IC50
[3] = test system: HCT-116; experiment: Cytotoxicity against human HCT-116 cells assessed as cell growth inhibition measured after 72 hrs by MTT assay; assay type: functional, cell-based; settings: HCT-116, 72 h
[4] = test system: HMEC-1; experiment: Induction of apoptosis in human HMEC-1 cells assessed as early apoptotic cells at IC50 incubated for 72 hrs by Annexin V-FITC/PI staining based flow cytometric analysis (reference value: 2.4 %); assay type: functional
[5] = Selectivity index, ratio of IC50 for cytotoxicity against human HMEC-1 cells to IC50 for cytotoxicity against human HCT-116 cells; assay type: toxicity, cell-based; settings: HMEC-1 cells and HCT-116 cells, read-out: Ratio IC50
[6] = test system: HMEC-1; experiment: Induction of apoptosis in human HMEC-1 cells assessed as late apoptotic cells at IC50 incubated for 72 hrs by Annexin V-FITC/PI staining based flow cytometric analysis (reference value: 4.7 %); assay type: functional
[7] = test system: K562; experiment: Cytotoxicity against human K562 cells assessed as cell growth inhibition measured after 72 hrs by MTT assay; assay type: functional, cell-based; settings: K562, 72 h
[8] = test system: K562; experiment: Induction of apoptosis in human K562 cells assessed as necrotic cells at IC50 incubated for 72 hrs by Annexin V-FITC/PI staining based flow cytometric analysis (reference value: 7.1 %); assay type: functional
[9] = Selectivity index, ratio of IC50 for cytotoxicity against human HMEC-1 cells to IC50 for cytotoxicity against human PC-3 cells; assay type: toxicity, cell-based; settings: HMEC-1 cells and PC-3 cells, read-out: Ratio IC50
[10] = test system: HCT-116; experiment: Induction of apoptosis in human HCT-116 cells assessed as early apoptotic cells at IC50 incubated for 72 hrs by Annexin V-FITC/PI staining based flow cytometric analysis (reference value: 7.8 %); assay type: functional
[11] = Selectivity index, ratio of IC50 for cytotoxicity against human HMEC-1 cells to IC50 for cytotoxicity against human K562 cells; assay type: toxicity, cell-based; settings: HMEC-1 cells and K562 cells, read-out: Ratio IC50
[12] = organism: Rattus norvegicus; experiment: Displacement of [3H]-QNB from Sprague-Dawley rat Muscarinic acetylcholine receptor assessed as inhibition constant measured after 45 mins by competitive binding assay
[13] = test system: MDA-MB-231; experiment: Cytotoxicity against human MDA-MB-231 cells assessed as cell growth inhibition measured after 72 hrs by MTT assay; assay type: functional, cell-based; settings: MDA-MB-231, 72 h
[14] = target: T1, 5-hydroxytryptamine receptor 1A (Rattus norvegicus, UniProt P19327); experiment: Agonist activity at Sprague-Dawley rat hippocampal membrane 5-HT1A receptor assessed as stimulation of [35S]GTPgammaS binding measured after 90 mins by scintillation counter analysis; assay type: functional, cell membranes, Hippocampus
T1 sequence (P19327 whole entry): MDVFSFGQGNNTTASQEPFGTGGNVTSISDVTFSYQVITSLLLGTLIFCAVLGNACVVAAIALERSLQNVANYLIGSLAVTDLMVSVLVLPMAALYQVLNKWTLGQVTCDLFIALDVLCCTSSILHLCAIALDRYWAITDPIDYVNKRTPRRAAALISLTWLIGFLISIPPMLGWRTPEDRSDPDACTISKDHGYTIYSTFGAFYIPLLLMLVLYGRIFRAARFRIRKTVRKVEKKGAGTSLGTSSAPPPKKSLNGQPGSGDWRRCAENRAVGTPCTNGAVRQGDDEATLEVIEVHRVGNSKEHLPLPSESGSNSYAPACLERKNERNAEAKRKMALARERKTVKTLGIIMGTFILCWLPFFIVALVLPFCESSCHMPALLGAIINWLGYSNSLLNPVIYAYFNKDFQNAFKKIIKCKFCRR

[15] = test system: HCT-116; experiment: Antiproliferative activity against human HCT-116 cells assessed as reduction in cell number at IC50 measured after 72 hrs by trypan blue dye based assay relative to control; assay type: functional; design: scale not given: the % may be the effect or the level left
[16] = test system: SW480; experiment: Cytotoxicity against human SW480 cells assessed as cell growth inhibition measured after 72 hrs by MTT assay; assay type: functional, cell-based; settings: SW480, 72 h
[17] = test system: HMEC-1; experiment: Antiproliferative activity against human HMEC-1 cells assessed as reduction in cell viability at IC50 measured after 72 hrs by trypan blue dye based assay relative to control; assay type: toxicity; settings: hmec-1, 72 h
[18] = Selectivity index, ratio of IC50 for cytotoxicity against human HMEC-1 cells to IC50 for cytotoxicity against human SW480 cells
[19] = Selectivity index, ratio of IC50 for cytotoxicity against human HMEC-1 cells to IC50 for cytotoxicity against human SW620 cells
[20] = test system: K562; experiment: Antiproliferative activity against human K562 cells assessed as reduction in cell number at IC50 measured after 72 hrs by trypan blue dye based assay relative to control; assay type: functional; design: scale not given: the % may be the effect or the level left
[21] = target: D(2) dopamine receptor (Rattus norvegicus, UniProt P61169); experiment: Antagonist activity at Sprague-Dawley rat striatum membrane D2 receptor assessed as inhibition of dopamine stimulated [35S]GTPgammaS binding measured after 90 mins by scintillation counter analysis; assay type: functional, cell membranes
Sequence of D(2) dopamine receptor (P61169 whole entry): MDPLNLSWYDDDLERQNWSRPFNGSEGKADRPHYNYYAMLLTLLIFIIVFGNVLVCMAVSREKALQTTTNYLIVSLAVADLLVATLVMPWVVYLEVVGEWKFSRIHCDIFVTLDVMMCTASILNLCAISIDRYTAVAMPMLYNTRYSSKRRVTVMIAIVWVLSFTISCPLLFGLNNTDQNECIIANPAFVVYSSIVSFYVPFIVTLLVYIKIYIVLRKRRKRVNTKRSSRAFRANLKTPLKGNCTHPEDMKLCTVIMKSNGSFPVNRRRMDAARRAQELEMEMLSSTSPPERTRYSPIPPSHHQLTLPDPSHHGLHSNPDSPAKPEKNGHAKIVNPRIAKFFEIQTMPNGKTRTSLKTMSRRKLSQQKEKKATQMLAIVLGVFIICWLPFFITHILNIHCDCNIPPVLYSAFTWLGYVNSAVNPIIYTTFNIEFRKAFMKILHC

[22] = test system: A549; experiment: Cytotoxicity against human A549 cells assessed as cell growth inhibition measured after 72 hrs by MTT assay; assay type: functional, cell-based; settings: A549, 72 h
[23] = test system: K562; experiment: Induction of apoptosis in human K562 cells assessed as late apoptotic cells at IC50 incubated for 72 hrs by Annexin V-FITC/PI staining based flow cytometric analysis (reference value: […]); assay type: functional
[24] = target: Histamine H1 receptor (Rattus norvegicus, UniProt P31390); experiment: Displacement of [3H]pyrilamine from Sprague-Dawley rat H1 receptor assessed as inhibition constant measured after 30 mins by competitive binding assay
Sequence of Histamine H1 receptor (P31390 whole entry): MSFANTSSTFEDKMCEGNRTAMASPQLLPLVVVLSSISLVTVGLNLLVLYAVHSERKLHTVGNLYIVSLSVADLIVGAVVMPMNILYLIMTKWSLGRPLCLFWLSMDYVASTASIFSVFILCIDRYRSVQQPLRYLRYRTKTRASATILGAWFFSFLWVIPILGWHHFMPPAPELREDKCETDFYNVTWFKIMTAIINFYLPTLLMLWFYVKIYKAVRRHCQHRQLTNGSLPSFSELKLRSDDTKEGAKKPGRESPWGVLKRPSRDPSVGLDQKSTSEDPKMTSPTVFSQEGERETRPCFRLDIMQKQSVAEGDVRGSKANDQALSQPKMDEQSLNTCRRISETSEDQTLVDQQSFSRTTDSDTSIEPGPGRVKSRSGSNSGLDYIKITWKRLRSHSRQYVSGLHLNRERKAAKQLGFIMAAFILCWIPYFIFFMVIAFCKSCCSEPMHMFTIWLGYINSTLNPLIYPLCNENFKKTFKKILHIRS

[25] = Cytotoxicity against human HMEC-1 cells assessed as cell growth inhibition measured after 72 hrs by MTT assay; assay type: toxicity, cell-based
[26] = test system: HCT-116; experiment: Induction of apoptosis in human HCT-116 cells assessed as necrotic cells at IC50 incubated for 72 hrs by Annexin V-FITC/PI staining based flow cytometric analysis (reference value: 0.1 %); assay type: functional
[27] = test system: HMEC-1; experiment: Induction of apoptosis in human HMEC-1 cells assessed as necrotic cells at IC50 incubated for 72 hrs by Annexin V-FITC/PI staining based flow cytometric analysis (reference value: 2.4 %); assay type: functional
[28] = test system: HCT-116; experiment: Induction of apoptosis in human HCT-116 cells assessed as late apoptotic cells at IC50 incubated for 72 hrs by Annexin V-FITC/PI staining based flow cytometric analysis (reference value: 1.6 %); assay type: functional
[29] = test system: HepG2; experiment: Cytotoxicity against human HepG2 cells assessed as cell growth inhibition measured after 72 hrs by MTT assay; assay type: functional, cell-based; settings: HepG2, 72 h
[30] = test system: K562; experiment: Induction of apoptosis in human K562 cells assessed as increase in caspase-3/7 activity at IC50 incubated for 24 hrs by Glo assay relative to control; assay type: functional
[31] = test system: PC-3; experiment: Cytotoxicity against human PC-3 cells assessed as cell growth inhibition measured after 72 hrs by MTT assay; assay type: functional, cell-based; settings: PC-3, 72 h
[32] = test system: HCT-116; experiment: Antiproliferative activity against human HCT-116 cells assessed as reduction in cell viability at IC50 measured after 72 hrs by trypan blue dye based assay relative to control; assay type: functional

| Activity [12] | EC50 [14] | SMILES | IC50 [1] | selectivity ratio [2] | IC50 [3] | Activity [4] | selectivity ratio [5] | Activity [6] | IC50 [7] | Activity [8] | selectivity ratio [9] | Activity [10] | selectivity ratio [11] | IC50 [13] | Activity [15] | IC50 [16] | Activity [17] | Ratio IC50 [18] | Ratio IC50 [19] | Activity [20] | further results |
| --- | --- | --- | --- | --- | --- | --- | --- | --- | --- | --- | --- | --- | --- | --- | --- | --- | --- | --- | --- | --- | --- |
| inactive | 0.7 µM | CC12C(=O)C(C)(C(c3ccccc3)=C1c1ccccc1)C1C(=O)N(CCCCN3CCN(c4ccccn4)CC3)C(=O)C12 (stereo unspecified) | 16 µM | 2.41 | 8.38 µM | 1.4% | 4.37 | 1.4% | 8.86 µM | 13.7% | 1.73 | 12.1% | 4.13 | 15.2 µM | 28% | 12.1 µM | Non-Toxic | 3.02 | 2.29 | 79% | IC50 [21]: 50.3 µM; IC50 [22]: 16.1 µM; Activity [23]: 43.8%; Ki [24]: 0.6 µM; IC50 at 72 h [25]: 36.6 µM; Activity [26]: 0.4%; Activity [27]: 1.6%; Activity [28]: 2.1%; IC50 [29]: 14.6 µM; Activity [30]: 74%; IC50 [31]: 21.2 µM; Activity [32]: 17% |
| inactive | 0.6 µM | CC12C(=O)C(C)(C(c3ccccc3)=C1c1ccccc1)C1C(=O)N(CCCCN3CCN(c4cccc(Cl)c4)CC3)C(=O)C12 (stereo unspecified) | 15.9 µM | 0.54 | 6.19 µM | 3.5% | 3.54 | 7.8% | 4.38 µM | 9.9% | 2.55 | 15.7% | 5.01 | 40.6 µM | 26% | 8.3 µM | Non-Toxic | 2.64 | 1.38 | 82% | IC50 [21]: 24.8 µM; IC50 [22]: 25.6 µM; Activity [23]: 25.4%; Ki [24]: 0.08 µM; IC50 at 72 h [25]: 21.9 µM; Activity [26]: 0.3%; Activity [27]: 2%; Activity [28]: 2.5%; IC50 [29]: 14.1 µM; Activity [30]: 74%; IC50 [31]: 8.61 µM; Activity [32]: 16% |
| inactive | 0.1 µM | CC12C(=O)C(C)(C(c3ccccc3)=C1c1ccccc1)C1C(=O)N(CCCCN3CCN(c4ccccc4Cl)CC3)C(=O)C12 (stereo unspecified) | 6.2 µM | 0.85 | 3.58 µM | 3.5% | 5.77 | 4.7% | 4.01 µM | 8.4% | 2.63 | 36.4% | 5.15 | 24.3 µM | 29% | 5.29 µM | Non-Toxic | 3.9 | 3.33 | 61% | IC50 [21]: 8.4 µM; IC50 [22]: 25 µM; Activity [23]: 19.4%; Ki [24]: 0.03 µM; IC50 at 72 h [25]: 20.6 µM; Activity [26]: 0.6%; Activity [27]: 5.1%; Activity [28]: 5%; IC50 [29]: 12.9 µM; Activity [30]: 22%; IC50 [31]: 7.85 µM; Activity [32]: 30% |
